The values below come from patent publication US20130029981A1, “COMPOUNDS, COMPOSITIONS, AND METHODS FOR CONTROLLING BIOFILMS” (Katholieke Universiteit Leuven, priority 2009, published 2013).

A word on the IC50: it is the midpoint of a concentration-inhibition curve.

Like-named read-outs stand apart in the source and are kept apart here. Some results are limits rather than exact numbers.

Test [1] concerns Pseudomonas aeruginosa PA14. The test is described as follows: Static peg assay for prevention of biofilm formation (Calgary device, crystal violet). The format is cell-based. The conditions noted are these: 25° C. As for the experimental part: (§1) Evaluation of the biofilm inhibitory activity of some substituted 2-amino-1H-imidazoles of the invention was carried out by growing up biofilms of S. Typhimurium ATCC14028 or SL1344 or Pseudomonas aeruginosa PA14 in the presence of different concentrations (1/2 dilution series) of biofilm inhibitors, by using the Calgary biofilm device. After an incubation period of 24 hours at 25° C. or 37° C. or 48 hours at 16° C. the biofilms were visualized by crystal violet staining. In the next step the stain was extracted from the biofilm with 30% acetic acid. The absorbance of the resolubilized stain at 570 nm is a measure of the amount of biofilm formed.
The device used for Pseudomonas aeruginosa biofilm formation is the same platform carrying polystyrene pegs as described above for Salmonella Typhimurium.
Two-fold serial dilutions of the compounds in 100 μl liquid broth per well were prepared in the microtiter plate. Subsequently, an overnight culture of P. aeruginosa PA14 (grown up in TSB medium) was diluted 1:100 into liquid broth and 100 μl was added to each well of the microtiter plates, resulting in a total amount of 200 μl medium per well. The pegged lid was placed on the microtiter plate and the plate was incubated for 24 hours at 25° C., 30° C. or 37° C. without shaking. During this incubation period biofilms were formed on the surface of the pegs. The liquid broth used for the tests at 25° C. was TSB 1/20. The tests at 37° C. were performed in CFA and/or LBNS broth. During incubation at 30° C. and 37° C. the plates were placed in a humidity controlled container to prevent evaporation of the growth medium. Quantification of biofilm formation was performed similarly as described previously for the S. Typhimurium biofilm assays.
as §1, with “imidazo[1,2-a]pyrimidinium bromide salts” for “2-amino-1H-imidazoles”
as §1, with “substituted imidazo[1,2-a]-pyrimidinium bromide and perchlorate salts produced according to examples 3 and 5” for “substituted 2-amino-1H-imidazoles of the invention”, “C.” for “C. or 37° C. or 48 hours at 16° C.”, “nm was taken as” for “nm is”

The subject of test [2] is S. Typhimurium ATCC14028. Described as above. The format is cell-based, Salmonella Typhimurium. The settings on record: 25° C. As for the experimental part: as §1
In examples 2 and 3, the following materials and methods were used.
The device used for biofilm formation is a platform carrying 96 polystyrene pegs (Nunc no. 445497) that fits as a microtiter plate lid with a peg hanging into each microtiter plate well (Nunc no. 269789). Biofilm formation assays were carried out at 16° C., 25° C. and 37° C.
For biofilm assays at 16° C. and 25° C., two-fold serial dilutions of the compounds in 100 μl liquid TSB 1/20 broth per well were prepared in the microtiter plate. Subsequently, an overnight culture of S. Typhimurium ATCC14028 or SL1344 (grown up in LB medium) was diluted 1:100 into TSB 1/20 broth and 100 μl (ca. 10^6 cells) was added to each well of the microtiter plates, resulting in a total amount of 200 μl medium per well. The pegged lid was placed on the microtiter plate and the plate was incubated for 48 hours at 16° C. or for 24 hours at 25° C. without shaking. During this incubation period biofilms were formed on the surface of the pegs. In case of the assay at 16° C., after 24 hours the lid was transferred into a new plate with medium and the specific molecules used for testing. […] For quantification of biofilm formation, the pegs were washed once in 200 μl phosphate buffered saline (PBS). The remaining attached bacteria were stained for 30 minutes with 200 μl 0.1% (w/v) crystal violet in an isopropanol/methanol/PBS solution (v/v 1:1:18). Excess stain was rinsed off by placing the pegs in a 96-well plate filled with 200 μl distilled water per well. After the pegs were air dried (30 min), the dye bound to the adherent cells was extracted with 30% glacial acetic acid (200 μl). The OD570 of each well was measured using the VERSAmax microtiter plate reader. The IC50 value for each compound was determined from concentration gradients in two or three independent experiments (with 2 or 3 repeats per experiment), by using the GraphPad software of Prism.
For biofilm assays at 37° C., two-fold serial dilutions of the compounds in 50 μl liquid CFA broth per well were prepared in the microtiter plate. Subsequently, an overnight culture of S. Typhimurium ATCC 14028 was diluted 1:100 into CFA broth and 100 μl (ca. 10^6 cells) was added to each well of the microtiter plates, resulting in a total amount of 150 μl medium per well. The pegged lid was placed on the microtiter plate and the plate was incubated for 24 hours at 37° C. without shaking. During incubation the plates were placed in a humidity controlled container to prevent evaporation of the growth medium. Quantification of biofilm formation was performed similarly as described above for the assays at 16° C. and 25° C.
as §1, with “imidazo[1,2-a]pyrimidinium bromide salts” for “2-amino-1H-imidazoles”

Setting [3] is: Table 16, read-out: P. aeruginosa IC50 (biofilm formation).
[4] abbreviates: Table 16, read-out: S. Typhimurium IC50 (biofilm formation).
[5] abbreviates: 24 hours, Table 15, read-out: (2) IC50 (biofilm inhibition).
[6] abbreviates: 24 hours, Table 15, read-out: (1) IC50 (biofilm inhibition).

On to `CN1c2nccc[n+]2CC1(O)c1ccccc1` (racemic) [Compound 1], for which the IC50 is 212 µM in test [1] (setting [3]) and more than 800 µM in test [2] (setting [4]).
The corresponding values for `CC(C)N1c2nccc[n+]2CC1(O)c1ccccc1` (racemic) [Compound 2] are more than 400 µM and 540 µM.
The corresponding values for `CCCCN1c2nccc[n+]2CC1(O)c1ccccc1` (racemic) [Compound 3] are more than 400 µM and 410 µM.
The corresponding values for `CC(C)CN1c2nccc[n+]2CC1(O)c1ccccc1` (racemic) [Compound 4] are 289 µM and 131 µM.
For the compound `CCCCCN1c2nccc[n+]2CC1(O)c1ccccc1` (racemic) [Compound 5], the IC50 in test [1] (setting [3]) was 565 µM; in test [2] (setting [4]) it was 278 µM.
On to `CCCCCCN1c2nccc[n+]2CC1(O)c1ccccc1` (racemic) [Compound 6], for which the IC50 in test [1] (setting [5]) was 3.13 µM; in test [1] (setting [3]), 406 µM; in test [2] (setting [6]) it was 102 µM; in test [2] (setting [4]), 102 µM.
With `CCCCCCCN1c2nccc[n+]2CC1(O)c1ccccc1` (racemic) [Compound 7], the IC50 in test [1] (setting [5]) is 5.89 µM; in test [1] (setting [3]) it was 24.8 µM; in test [2] (setting [6]), 23.4 µM; in test [2] (setting [4]) it was 23.4 µM.
As for `CCCCCCCCN1c2nccc[n+]2CC1(O)c1ccccc1` (racemic) [Compound 8], the IC50 in test [1] (setting [5]) came to 11.2 µM; in test [1] (setting [3]), 18.9 µM; in test [2] (setting [6]), 9.77 µM; in test [2] (setting [4]), 9.8 µM.
With `CCCCCCCCCN1c2nccc[n+]2CC1(O)c1ccccc1` (racemic) [Compound 9], the IC50 in test [1] (setting [5]) was 4.85 µM; in test [1] (setting [3]), 55.7 µM; in test [2] (setting [6]) it was 8.26 µM; in test [2] (setting [4]), 8.3 µM.
`CCCCCCCCCCN1c2nccc[n+]2CC1(O)c1ccccc1` (racemic) [Compound 10]: the IC50 in test [1] (setting [5]) worked out at 3.95 µM; in test [1] (setting [3]) it was 47 µM; in test [2] (setting [6]) it was 15 µM; in test [2] (setting [4]), 15 µM.
Consider `CCCCCCCCCCCN1c2nccc[n+]2CC1(O)c1ccccc1` (racemic) [Compound 11], for which the IC50 in test [1] (setting [5]) is 28.6 µM; in test [1] (setting [3]) it was more than 800 µM; in test [2] (setting [6]), 24.6 µM; in test [2] (setting [4]) it was 24.6 µM.
Take `CCCCCCCCCCCCN1c2nccc[n+]2CC1(O)c1ccccc1` (racemic) [Compound 12]: the IC50 in test [1] (setting [5]) is 9.63 µM; in test [1] (setting [3]), more than 800 µM; in test [2] (setting [6]), 27.5 µM; in test [2] (setting [4]), 27.5 µM.
On to `CCCCCCCCCCCCCN1c2nccc[n+]2CC1(O)c1ccccc1` (racemic) [Compound 13], for which the IC50 in test [1] (setting [5]) was 17 µM; in test [1] (setting [3]), more than 800 µM; in test [2] (setting [6]), 81.6 µM; in test [2] (setting [4]) it was 81.6 µM.
Turning to `CCCCCCCCCCCCCCN1c2nccc[n+]2CC1(O)c1ccccc1` (racemic) [Compound 14], the half-maximal inhibitory concentration (IC50) is more than 800 µM in test [1] (setting [3]), 180 µM in test [2] (setting [6]) and 180 µM in test [2] (setting [4]).
As for `CCCCN1c2nccc[n+]2CC1(O)c1ccc(Cl)cc1` (racemic) [Compound 16], the values for the IC50 in test [1] (setting [3]) and in test [2] (setting [4]) were 24.9 µM and 29.7 µM, respectively.
The corresponding values for `CC(C)CN1c2nccc[n+]2CC1(O)c1ccc(Cl)cc1` (racemic) [Compound 17] are 83.4 µM and 31.4 µM.
Take `CCCCCN1c2nccc[n+]2CC1(O)c1ccc(Cl)cc1` (racemic) [Compound 18]: the IC50 stood at 164 µM in test [1] (setting [3]) and 32.6 µM in test [2] (setting [4]).
Take `CCCCCCN1c2nccc[n+]2CC1(O)c1ccc(Cl)cc1` (racemic) [Compound 19]: the IC50 in test [1] (setting [5]) was 20.2 µM; in test [1] (setting [3]), 79.8 µM; in test [2] (setting [6]), 13.7 µM; in test [2] (setting [4]), 13.7 µM.
For the compound `CCCCCCCN1c2nccc[n+]2CC1(O)c1ccc(Cl)cc1` (racemic) [Compound 20], the concentration for half-maximal inhibition (IC50) in test [1] (setting [5]) was approximately 12.5 µM; in test [1] (setting [3]), 36.9 µM; in test [2] (setting [6]), 6.67 µM; in test [2] (setting [4]), 6.7 µM.
The corresponding values for `CCCCCCCCN1c2nccc[n+]2CC1(O)c1ccc(Cl)cc1` (racemic) [Compound 21] are 11.7 µM, 21.7 µM, 6.98 µM and 7 µM.
The corresponding values for `CCCCCCCCCN1c2nccc[n+]2CC1(O)c1ccc(Cl)cc1` (racemic) [Compound 22] are 60.5 µM, 21 µM, 18.3 µM and 18.3 µM.
The corresponding values for `CCCCCCCCCCN1c2nccc[n+]2CC1(O)c1ccc(Cl)cc1` (racemic) [Compound 23] are 193 µM, 66.4 µM, 51.3 µM and 51.3 µM.
Take `CCCCCCCCCCCN1c2nccc[n+]2CC1(O)c1ccc(Cl)cc1` (racemic) [Compound 24]: the IC50 in test [1] (setting [5]) was 205 µM; in test [1] (setting [3]), more than 800 µM; in test [2] (setting [6]), 61.9 µM; in test [2] (setting [4]), 61.9 µM.
Turning to `CCCCCCCCCCCCN1c2nccc[n+]2CC1(O)c1ccc(Cl)cc1` (racemic) [Compound 25], the IC50 in test [1] (setting [5]) is 119 µM; in test [1] (setting [3]) it was more than 800 µM; in test [2] (setting [6]), 122 µM; in test [2] (setting [4]), 122 µM.
For `CCCCCCCCCCCCCN1c2nccc[n+]2CC1(O)c1ccc(Cl)cc1` (racemic) [Compound 26], the IC50 in test [1] (setting [5]) is 59 µM; in test [1] (setting [3]), more than 800 µM; in test [2] (setting [6]), 316 µM; in test [2] (setting [4]), 316 µM.
`CCCCCCCCCCCCCCN1c2nccc[n+]2CC1(O)c1ccc(Cl)cc1` (racemic) [Compound 27]: the IC50 in test [1] (setting [3]) and in test [2] (setting [4]) was more than 800 µM in each case.
Turning to `CCN1c2nccc[n+]2CC1(O)c1ccc([N+](=O)[O-])cc1` (racemic) [Compound 29], the IC50 in test [1] (setting [3]) was more than 800 µM; in test [2] (setting [4]), 579 µM.
The corresponding values for `CC(C)N1c2nccc[n+]2CC1(O)c1ccc([N+](=O)[O-])cc1` (racemic) [Compound 30] are 192 µM and 466 µM.
